Patent US12617783B2, “Heterocyclic GLP-1R agonists” (BIOMEA FUSION, INC., priority 2024, dated 2026)

Target: T1, human GLP-1R (Homo sapiens, UniProt P43220)
T1 construct: host or cells: HEK293
Experiment: GLP-1R cAMP assay (Example B1a, HTRF, 30 min at room temperature)
Format: cell-based
Conditions: cAMP accumulation in HEK293 expressing human GLP-1R, no BETP, 30 min room temperature (Method B1a, compounds ID 1-609), Table 1; read-out: EC50
Outline: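 Competitive HTRF read-out of cAMP after 30 min room-temperature stimulation, BETP absent, of human GLP-1R-HEK293 cells (1,000/well) in HEPES buffer with 500 μM IBMX and 0.1% BSA. Activation normalised to GLP-1(7-37) positive control. EC50 from 4-parameter non-linear regression.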

T1 sequence (P43220 24-463): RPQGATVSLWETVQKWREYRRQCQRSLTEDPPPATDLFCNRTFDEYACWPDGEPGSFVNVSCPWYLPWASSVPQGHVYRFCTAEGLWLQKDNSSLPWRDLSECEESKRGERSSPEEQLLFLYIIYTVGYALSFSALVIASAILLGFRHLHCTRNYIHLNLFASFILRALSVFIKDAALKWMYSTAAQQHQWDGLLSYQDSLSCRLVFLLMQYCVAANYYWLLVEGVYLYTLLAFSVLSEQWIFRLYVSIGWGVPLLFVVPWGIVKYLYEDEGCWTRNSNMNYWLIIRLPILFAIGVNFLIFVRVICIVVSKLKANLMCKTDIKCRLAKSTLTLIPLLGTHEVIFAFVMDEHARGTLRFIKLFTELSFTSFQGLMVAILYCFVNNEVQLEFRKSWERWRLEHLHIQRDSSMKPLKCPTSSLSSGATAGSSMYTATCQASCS

Row | EC50 [nM] | SMILES
1 | > 10000 | Cc1cc(-n2nc3c(c2-n2ccn(-c4ccc5c(cnn5C)c4F)c2=O)[C@@H]2CC[C@H](C3)N2C(=O)c2cc3c(=O)n([C@@H]4CCOC(C)(C)C4)ccc3n2[C@@]2(c3noc(=O)[nH]3)C[C@@H]2C)cc(C)c1F [Compound 239, 3-[(1S,2S)-1-[5-[(4R)-2,2-dimethyltetrahydropyran-4-yl]-2-[(1S,8R)-4-(4-fluoro-3,5-dimethyl-phenyl)-3-[3-(4-fluoro-1-methyl-indazol-5-yl)-2-oxo-imidazol-1-yl]-4,5,11-triazatricyclo[6.2.1.02,6]undeca-2,5-diene-11-carbonyl]-4-oxo-pyrrolo[3,2-c]pyridin-1-yl]-2-methyl-cyclopropyl]-4H-1,2,4-oxadiazol-5-one]
2 | 618 | Cc1cc(-n2nc3c(c2-n2ccn(-c4ccc5c(cnn5C)c4F)c2=O)[C@@H]2CC[C@H](C3)N2C(=O)c2cc3cc([C@H]4CCOC(C)(C)C4)ccc3n2[C@@]2(C(=O)N(C)C)C[C@@H]2C)cc(C)c1F [Compound 240, cis-(1S,2S)-1-[5-[(4S)-2,2-dimethyltetrahydropyran-4-yl]-2-[(1S,8R)-4-(4-fluoro-3,5-dimethyl-phenyl)-3-[3-(4-fluoro-1-methyl-indazol-5-yl)-2-oxo-imidazol-1-yl]-4,5,11-triazatricyclo[6.2.1.02,6]undeca-2,5-diene-11-carbonyl]indol-1-yl]-N,N,2-trimethyl-cyclopropanecarboxamide]
3 | 641 | Cc1cc(-n2nc3c(c2-n2ccn(-c4ccc5c(cnn5C)c4F)c2=O)[C@@H]2CC[C@H](C3)N2C(=O)c2cc3cc([C@H]4CCOC(C)(C)C4)ccc3n2[C@@]2(CNC(=O)CO)C[C@@H]2C)cc(C)c1F [Compound 241, N-[[(1S,2S)-1-[5-[(4S)-2,2-dimethyltetrahydropyran-4-yl]-2-[(1S,8R)-4-(4-fluoro-3,5-dimethyl-phenyl)-3-[3-(4-fluoro-1-methyl-indazol-5-yl)-2-oxo-imidazol-1-yl]-4,5,11-triazatricyclo[6.2.1.02,6]undeca-2,5-diene-11-carbonyl]indol-1-yl]-2-methyl-cyclopropyl]methyl]-2-hydroxy-acetamide]
4 | 168 | Cc1cc(-n2nc3c(c2-n2ccn(-c4cc(F)c5c(cnn5C)c4F)c2=O)[C@@H]2COC[C@H](C3)N2C(=O)c2cc3cc(C4CCOC5(CC5)C4)ccc3n2[C@@]2(c3noc(=O)[nH]3)C[C@@H]2C)cc(C)c1F (stereo partly drawn) [Compound 242, 3-((1S,2S)-1-(2-((4R,8S)-3-(3-(4,7-difluoro-1-methyl-1H-indazol-5-yl)-2-oxo-2,3-dihydro-1H-imidazol-1-yl)-2-(4-fluoro-3,5-dimethylphenyl)-2,4,5,7,8,9-hexahydro-4,8-epiminooxocino [5,4-c]pyrazole-10-carbonyl)-5-(4-oxaspiro[2.5]octan-7-yl)-1H-indol-1-yl)-2-methylcyclopropyl)-1,2,4-oxadiazol-5 (4H)-one]
5 | 757 | CC(=O)NC[C@]1(n2c(C(=O)N3[C@@H]4CC[C@H]3c3c(nn(-c5cc(C)c(F)c(C)c5)c3-n3ccn(-c5ccc6c(cnn6C)c5F)c3=O)C4)cc3cc([C@H]4CCOC(C)(C)C4)ccc32)C[C@@H]1C [Compound 243, N-[[(1S,2S)-1-[5-[(4S)-2,2-dimethyltetrahydropyran-4-yl]-2-[(1S,8R)-4-(4-fluoro-3,5-dimethyl-phenyl)-3-[3-(4-fluoro-1-methyl-indazol-5-yl)-2-oxo-imidazol-1-yl]-4,5,11-triazatricyclo[6.2.1.02,6]undeca-2,5-diene-11-carbonyl]indol-1-yl]-2-methyl-cyclopropyl]methyl]acetamide]
6 | 390 | CNC(=O)[C@]1(n2c(C(=O)N3[C@@H]4CC[C@H]3c3c(nn(-c5cc(C)c(F)c(C)c5)c3-n3ccn(-c5ccc6c(cnn6C)c5F)c3=O)C4)cc3cc([C@H]4CCOC(C)(C)C4)ccc32)C[C@@H]1C [Compound 244, cis-(1S,2S)-1-[5-[(4S)-2,2-dimethyltetrahydropyran-4-yl]-2-[(1S,8R)-4-(4-fluoro-3,5-dimethyl-phenyl)-3-[3-(4-fluoro-1-methyl-indazol-5-yl)-2-oxo-imidazol-1-yl]-4,5,11-triazatricyclo[6.2.1.02,6]undeca-2,5-diene-11-carbonyl]indol-1-yl]-N,2-dimethyl-cyclopropanecarboxamide]
7 | 5070 | Cc1cc(-n2nc3c(c2-n2ccn(-c4ccc5c(cnn5C)c4F)c2=O)[C@@H]2CC[C@H](C3)N2C(=O)c2cc3sc(C4CCOC(C)(C)C4)nc3n2[C@@]2(c3noc(=O)[nH]3)C[C@@H]2C)cc(C)c1F (stereo partly drawn) [Compound 245, 3-[(1S,2S)-1-[2-(2,2-dimethyltetrahydropyran-4-yl)-5-[(1S,8R)-4-(4-fluoro-3,5-dimethyl-phenyl)-3-[3-(4-fluoro-1-methyl-indazol-5-yl)-2-oxo-imidazol-1-yl]-4,5,11-triazatricyclo[6.2.1.02,6]undeca-2,5-diene-11-carbonyl]pyrrolo[2,3-d]thiazol-4-yl]-2-methyl-cyclopropyl]-4H-1,2,4-oxadiazol-5-one]
8 | 699 | Cc1cc(-n2nc3c(c2-n2ccn(-c4ccc5c(cnn5C)c4F)c2=O)[C@@H]2CC[C@H](C3)N2C(=O)c2cc3cc([C@H]4CCOC(C)(C)C4)ccc3n2[C@@]2(C(=O)NC3CC3)C[C@@H]2C)cc(C)c1F [Compound 246, cis-(1S,2S)-N-cyclopropyl-1-[5-[(4S)-2,2-dimethyltetrahydropyran-4-yl]-2-[(1S,8R)-4-(4-fluoro-3,5-dimethyl-phenyl)-3-[3-(4-fluoro-1-methyl-indazol-5-yl)-2-oxo-imidazol-1-yl]-4,5,11-triazatricyclo[6.2.1.02,6]undeca-2,5-diene-11-carbonyl]indol-1-yl]-2-methyl-cyclopropanecarboxamide]
9 | 52.9 | Cc1cc(-n2nc3c(c2-n2ccn(-c4ccc5c(cnn5C)c4)c2=O)[C@@H]2CC[C@H](C3)N2C(=O)c2cc3cc([C@H]4CCOC(C)(C)C4)ccc3n2[C@@]2(c3noc(=O)[nH]3)C[C@@H]2C)cc(C)c1F [Compound 302, 3-((1S,2S)-1-(5-((S)-2,2-dimethyltetrahydro-2H-pyran-4-yl)-2-((4S,7R)-2-(4-fluoro-3,5-dimethylphenyl)-3-(3-(1-methyl-1H-indazol-5-yl)-2-oxo-2,3-dihydro-1H-imidazol-1-yl)-2,4,5,6,7,8-hexahydro-4,7-epiminocyclohepta [c]pyrazole-9-carbonyl)-1H-indol-1-yl)-2-methylcyclopropyl)-1,2,4-oxadiazol-5 (4H)-one]
10 | 206 | Cc1cc(-n2nc3c(c2-n2ccn(-c4ccc5c(cnn5C)c4C)c2=O)[C@@H]2CC[C@H](C3)N2C(=O)c2cc3cc([C@H]4CCOC(C)(C)C4)ccc3n2[C@@]2(c3noc(=O)[nH]3)C[C@@H]2C)cc(C)c1F [Compound 305, 3-((1S,2S)-1-(2-((45,7R)-3-(3-(1,4-dimethyl-1H-indazol-5-yl)-2-oxo-2,3-dihydro-1H-imidazol-1-yl)-2-(4-fluoro-3,5-dimethylphenyl)-2,4,5,6,7,8-hexahydro-4,7-epiminocyclohepta [c]pyrazole-9-carbonyl)-5-((S)-2,2-dimethyltetrahydro-2H-pyran-4-yl)-1H-indol-1-yl)-2-methylcyclopropyl)-1,2,4-oxadiazol-5 (4H)-one]
11 | 2450 | Cc1cc(-n2nc3c(c2-n2ccn(-c4ccc5c(cnn5C)c4F)c2=O)[C@@H]2CC[C@H](C3)N2C(=O)c2cc3sc([C@H]4CCOC(C)(C)C4)nc3n2[C@@]2(c3noc(=O)[nH]3)C[C@@H]2C)cc(C)c1F [Compound 306, 3-[(1S,2S)-1-[2-[(4S)-2,2-dimethyltetrahydropyran-4-yl]-5-[(1S,8R)-4-(4-fluoro-3,5-dimethyl-phenyl)-3-[3-(4-fluoro-1-methyl-indazol-5-yl)-2-oxo-imidazol-1-yl]-4,5,11-triazatricyclo[6.2.1.02,6]undeca-2,5-diene-11-carbonyl]pyrrolo[2,3-d]thiazol-4-yl]-2-methyl-cyclopropyl]-4H-1,2,4-oxadiazol-5-one]
12 | > 10000 | Cc1cc(-n2nc3c(c2-n2ccn(-c4ccc5c(cnn5C)c4F)c2=O)[C@@H]2CC[C@H](C3)N2C(=O)c2cc3sc([C@@H]4CCOC(C)(C)C4)nc3n2[C@@]2(c3noc(=O)[nH]3)C[C@@H]2C)cc(C)c1F [Compound 307, 3-[(1S,2S)-1-[2-[(4R)-2,2-dimethyltetrahydropyran-4-yl]-5-[(1S,8R)-4-(4-fluoro-3,5-dimethyl-phenyl)-3-[3-(4-fluoro-1-methyl-indazol-5-yl)-2-oxo-imidazol-1-yl]-4,5,11-triazatricyclo[6.2.1.02,6]undeca-2,5-diene-11-carbonyl]pyrrolo[2,3-d]thiazol-4-yl]-2-methyl-cyclopropyl]-4H-1,2,4-oxadiazol-5-one]
13 | 197 | Cc1cc(-n2nc3c(c2-n2ccn(-c4ccc5c(cnn5C)c4Cl)c2=O)[C@@H]2CC[C@H](C3)N2C(=O)c2cc3cc([C@H]4CCOC(C)(C)C4)ccc3n2[C@@]2(c3noc(=O)[nH]3)C[C@@H]2C)cc(C)c1F [Compound 308, 3-((1S,2S)-1-(2-((4S,7R)-3-(3-(4-chloro-1-methyl-1H-indazol-5-yl)-2-oxo-2,3-dihydro-1H-imidazol-1-yl)-2-(4-fluoro-3,5-dimethylphenyl)-2,4,5,6,7,8-hexahydro-4,7-epiminocyclohepta [c]pyrazole-9-carbonyl)-5-((S)-2,2-dimethyltetrahydro-2H-pyran-4-yl)-1H-indol-1-yl)-2-methylcyclopropyl)-1,2,4-oxadiazol-5(4H)-one]
14 | 721 | Cc1cc(-n2nc3c(c2-n2ccn(-c4ccc5nn(C(F)F)cc5c4F)c2=O)[C@@H]2CC[C@H](C3)N2C(=O)c2cc3cc([C@H]4CCOC(C)(C)C4)ccc3n2[C@@]2(c3noc(=O)[nH]3)C[C@@H]2C)cc(C)c1F [Compound 309, 3-((1S,2S)-1-(2-((4S,7R)-3-(3-(2-(difluoromethyl)-4-fluoro-2H-indazol-5-yl)-2-oxo-2,3-dihydro-1H-imidazol-1-yl)-2-(4-fluoro-3,5-dimethylphenyl)-2,4,5,6,7,8-hexahydro-4,7-epiminocyclohepta [c]pyrazole-9-carbonyl)-5-((S)-2,2-dimethyltetrahydro-2H-pyran-4-yl)-1H-indol-1-yl)-2-methylcyclopropyl)-1,2,4-oxadiazol-5 (4H)-one]
